Results from ChEMBL document CHEMBL1201862, “PubChem BioAssay data set” (2004).
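Grown in 96-well plates, cells were treated for 48 hours with each compound at five concentrations. Insufficient inhibition: endpoint recorded as highest concentration tested. GI50 = concentration required for 50% inhibition of growth.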 The source made the active and inactive calls. Cut-off read from the data, not from the text of the source: active = GI50 up to about 1.1 µM and inactive = higher.

How the values were obtained:
Experiment in all cases: growth of human tumour cells (NCI), 48 h
SK-MEL-5 = tested on: SK-MEL-5
HL-60 = tested on: HL-60
CAKI-1 = tested on: CAKI-1
HCC 2998 = tested on: HCC 2998
NCI-H23 = tested on: NCI-H23
SF-295 = tested on: SF-295
OVCAR-4 = tested on: OVCAR-4
HCT-15 = tested on: HCT-15
RPMI-8226 = tested on: RPMI-8226
SNB-19 = tested on: SNB-19
A549 = tested on: A549
CCRF-CEM = tested on: CCRF-CEM
UACC-257 = tested on: UACC-257
NCI-H460 = tested on: NCI-H460
COLO 205 = tested on: COLO 205
SK-MEL-28 = tested on: SK-MEL-28
Hs-578T = tested on: Hs-578T
PC-3 = tested on: PC-3
NCI/ADR-RES = tested on: NCI/ADR-RES

SMILES	GI50 (SK-MEL-5)	GI50 (HL-60)	GI50 (CAKI-1)	GI50 (HCC 2998)	GI50 (NCI-H23)	GI50 (SF-295)	GI50 (OVCAR-4)	GI50 (HCT-15) [µM]	GI50 (RPMI-8226)	GI50 (SNB-19)	GI50 (A549)	GI50 (CCRF-CEM)	GI50 (UACC-257)	GI50 (NCI-H460)	GI50 (COLO 205)	GI50 (SK-MEL-28)	GI50 (Hs-578T)	GI50 (PC-3)	GI50 (NCI/ADR-RES)
COC(=O)C(=C/c1ccc(OC)cc1)/C(C(=O)O)=C(/C)c1ccccc1	> 100 µM (inactive)	> 100 µM (inactive)	> 100 µM (inactive)	> 100 µM (inactive)	> 100 µM (inactive)	> 100 µM (inactive)	> 100 µM (inactive)	> 100	> 100 µM (inactive)	> 100 µM (inactive)	> 100 µM (inactive)	> 100 µM (inactive)	> 100 µM (inactive)	> 100 µM (inactive)	> 100 µM (inactive)				
Cc1cc(Cl)ccc1NC(=O)CCCC(=O)C1C/C(=N/O)CC/C1=N\O (stereo not drawn)	> 100 µM (inactive)	> 100 µM (inactive)	> 100 µM (inactive)	> 100 µM (inactive)	> 100 µM (inactive)	> 100 µM (inactive)	> 100 µM (inactive)	> 100	> 100 µM (inactive)	> 100 µM (inactive)	> 100 µM (inactive)	> 100 µM (inactive)	> 100 µM (inactive)	> 100 µM (inactive)	> 100 µM (inactive)	> 100 µM (inactive)			
COc1c(I)c(OC)c2c(c1I)O[C@@H]1OCC[C@H]21	13.7 µM (inactive)	17.3 µM (inactive)	0.098 µM (active)	30.5 µM (inactive)	30.6 µM (inactive)	38.2 µM (inactive)	23.6 µM (inactive)	35.6	19.7 µM (inactive)	77.1 µM (inactive)	34 µM (inactive)	27.5 µM (inactive)	26.1 µM (inactive)	20.2 µM (inactive)	20 µM (inactive)	34.2 µM (inactive)			
COC(=O)c1onc(C2OC(C)(C)OC2C(O)COC(c2ccccc2)(c2ccccc2)c2ccccc2)c1C(=O)OC (stereo not drawn)	> 100 µM (inactive)	> 100 µM (inactive)		> 100 µM (inactive)	72.3 µM (inactive)		> 100 µM (inactive)	> 100	> 100 µM (inactive)	> 100 µM (inactive)	> 100 µM (inactive)	> 100 µM (inactive)			> 100 µM (inactive)	> 100 µM (inactive)	> 100 µM (inactive)	44.7 µM (inactive)	
C=C1C(=O)OC2C/C(C)=C/CC/C(C)=C/CCC3(COC(C)=O)OC3CC12 (stereo not drawn)	14.9 µM (inactive)	2.21 µM (inactive)	3.31 µM (inactive)	8.85 µM (inactive)	11.8 µM (inactive)	15.3 µM (inactive)	26.7 µM (inactive)	2.81	2.53 µM (inactive)	16.5 µM (inactive)	16.4 µM (inactive)	2.7 µM (inactive)	15.4 µM (inactive)	12.7 µM (inactive)	4.55 µM (inactive)	11.1 µM (inactive)			
Cc1ccccc1-n1c(CCl)nc2ccc(Br)cc2c1=O	8.17 µM (inactive)	5.77 µM (inactive)	1.77 µM (inactive)	16.8 µM (inactive)	9.91 µM (inactive)	11 µM (inactive)	14.8 µM (inactive)	3.59	8.36 µM (inactive)	26.7 µM (inactive)	18.2 µM (inactive)	0.278 µM (active)	14.8 µM (inactive)	13.5 µM (inactive)	13.4 µM (inactive)	17.5 µM (inactive)			
N#Cc1nc(Nc2ccc([N+](=O)[O-])cc2)sc1N	3.79 µM (inactive)	3.53 µM (inactive)	11.9 µM (inactive)	11.7 µM (inactive)	4.44 µM (inactive)	26.5 µM (inactive)	33.8 µM (inactive)	12.5	3.45 µM (inactive)	17.7 µM (inactive)	23.9 µM (inactive)	3.4 µM (inactive)	18.6 µM (inactive)	28.8 µM (inactive)	14 µM (inactive)	22.9 µM (inactive)			
CCOC(=O)C1C(c2ccc(Cl)cc2Cl)NC(c2ccc(C)cc2)C(C(=O)OC)S1(=O)=O (stereo not drawn)	87.5 µM (inactive)	55.8 µM (inactive)	> 100 µM (inactive)	> 100 µM (inactive)	66.8 µM (inactive)	> 100 µM (inactive)	> 100 µM (inactive)	59.2	74.3 µM (inactive)	> 100 µM (inactive)	37.8 µM (inactive)	> 100 µM (inactive)	22.8 µM (inactive)	37.7 µM (inactive)	> 100 µM (inactive)	> 100 µM (inactive)			
Cc1ccc2c(c1)Nc1cc(C(F)(F)F)ccc1[PH]2=O (stereo not drawn)	15.3 µM (inactive)	29.3 µM (inactive)	47.4 µM (inactive)	44.6 µM (inactive)	22.2 µM (inactive)	5.57 µM (inactive)	11.6 µM (inactive)	43.6		18.9 µM (inactive)	30.4 µM (inactive)	14.9 µM (inactive)	28.2 µM (inactive)	27.7 µM (inactive)	16.1 µM (inactive)	78.5 µM (inactive)		21.7 µM (inactive)	67.1 µM (inactive)
COc1ccc2nc3cc(Cl)ccc3c(NCCC[N+](C)(C)CCCCCCCCCCCCCCCC[N+](C)(C)CCCNc3c4ccc(Cl)cc4nc4ccc(OC)cc34)c2c1	2 µM (inactive)	1.69 µM (inactive)	10.6 µM (inactive)	2.84 µM (inactive)	2 µM (inactive)	6.03 µM (inactive)	2.44 µM (inactive)	5.85	1.47 µM (inactive)	2.69 µM (inactive)	3.12 µM (inactive)	1.66 µM (inactive)	2.43 µM (inactive)	1.68 µM (inactive)	1.83 µM (inactive)	2.08 µM (inactive)			
O=C(NCCCCCCCCCCCCNC(=O)c1cccc2ccccc12)c1cccc2ccccc12	> 100 µM (inactive)	31.3 µM (inactive)	23.3 µM (inactive)	> 100 µM (inactive)	> 64.1 µM (inactive)	> 50.4 µM (inactive)	6.24 µM (inactive)	> 100	> 100 µM (inactive)	45.6 µM (inactive)	> 68.5 µM (inactive)	> 56.2 µM (inactive)	> 100 µM (inactive)	> 90.8 µM (inactive)	> 100 µM (inactive)	> 100 µM (inactive)			
COc1ccc2c(c1)[n+]([O-])c(/C(C)=N/NC(=O)c1ccccc1O)c(C)[n+]2[O-]	> 100 µM (inactive)	> 100 µM (inactive)	> 100 µM (inactive)	> 100 µM (inactive)	> 100 µM (inactive)	> 100 µM (inactive)	> 100 µM (inactive)	> 100	> 100 µM (inactive)	> 100 µM (inactive)	> 100 µM (inactive)	> 100 µM (inactive)	> 100 µM (inactive)	> 100 µM (inactive)		> 100 µM (inactive)			
CC(C)N(C(=O)C12C3C4C1C1C2C3C41C(=O)C(C)(C)C)C(C)C (stereo not drawn)	38.8 µM (inactive)	18.1 µM (inactive)	> 100 µM (inactive)	> 100 µM (inactive)	> 100 µM (inactive)	> 100 µM (inactive)	> 100 µM (inactive)		31.9 µM (inactive)	> 100 µM (inactive)	> 100 µM (inactive)	16.1 µM (inactive)	95.3 µM (inactive)		> 100 µM (inactive)	> 100 µM (inactive)			
